Test results taken from PMC9301920, “Physiologically Based Toxicokinetic Modeling of Bisphenols in Zebrafish (Danio rerio) Accounting for Variations in Metabolic Rates, Brain Distribution, and Liver Accumulation” (Environmental Science & Technology, 2022).
Where two headings read alike, the source gives them in different places.

Experiments:
[1] = In vitro biotransformation rate, rainbow trout liver S9 (OECD TG 319); type: in vitro ADME
Procedure: In brief, rainbow trout liver S9 homogenate was preincubated in buffer and cofactors, followed by 120 min of incubation with bisphenol. From each duplicate, 50 μL of subsamples was taken at timepoints 0, 2, 5, 15, 30, 60, 90, and 120 min and mixed with 200 μL of ice-cold methanol. The protocol of the procedure is described further in Section 2.
1042. Biotransformation rate estimation methodology
106Trinova Biochem; Lot: 180216) was pre-incubated at 11°C in K 2HPO4/KH2PO4 buffer
107(pH=7.8; 1 mL final volume) containing alamethicin from Trichoderma viride (25 μg/mL), and
108cofactors NADPH (2 mM), UDPGA (2 mM), GSH (5 mM), and PAPS (0.1 mM). After 10 min
109of preincubation, biotransformation was started by adding 5 µL of bisphenol test compound
110dissolved in methanol (1 µM final concentration). […]

[2] = In vivo zebrafish kinetics of BPZ (water exposure, organ concentrations by LC-MS/MS); parameters: species or system zebrafish (Danio rerio); settings: female, zebrafish; for concentration at 12 h / concentration at 483 h / concentration at 486 h / concentration at 492 h / concentration at 504 h / concentration at 576 h / concentration at 6 h / concentration at 24 h / concentration at 48 h / concentration at 72 h / concentration at 336 h / concentration at 411 h / concentration at 480 h: female zebrafish; for concentration at 483 h: 483 h (depuration phase); for concentration at 486 h: 486 h (depuration phase); for concentration at 492 h: 492 h (depuration phase); for concentration at 504 h: 504 h (depuration phase); for concentration at 576 h: 576 h (depuration phase); for concentration at 480 h: 480 h (one outlier fish removed); for Cmax / half-life: 17 μg/L in water, observed
Procedure: At sampling, adult fish were euthanized by immersion in a sodium bicarbonate-buffered tricaine methanesulfonate solution (MS222: 500 mg/L) and decapitated thereafter. […] Additionally, three whole fish were sampled at timepoints of 6, 12, and 24 h of the exposure phase. Water from the fish tank was sampled at 0, 12, 24, 48, 72, 168, 336, 411, and 480 h after exposure start as well as at 0, 12, 24, and 96 h after the start of depuration. Control fish and tank water were sampled before the start of exposure. All samples were immediately stored at −20 °C until further analysis. […]
1223. In Vivo Zebrafish Kinetics of BPZ
123Adult zebrafish were purchased from a local supplier in Uppsala, Sweden, and acclimatized for
1246 weeks before the start of the study. The zebrafish were kept in 26 °C charcoal filtered tap
173NH 4OH and 4 ml acetonitrile/tetrahydofuran (1:1) mixture. The 4 ml 2% formic acid in
174methanol eluates were evaporated until dry. Remaining residues were then reconstituted in 50
175µl water and methanol 50/50 v/v mixture. Extracts were stored at 4°C until measurement.
176The extracts were measured on a LC (ExionLC, Sciex) coupled with a Turbo V Ion source (ESI)
178Sciex). Separation of compound was done on a phenyl-hexyl column (Kinetex, 100 x 2.1 mm,
1791.7 µm, Phenomenex) set at 45°C using a gradient of 0.2 mM NH 4F and 0.2 mM NH4F in
180acetonitrile. The applied MRM transitions and MS/MS settings are described in Tables S5-S8.
LC column Kinetex Phenyl-hexyl column, 1.7 µm, 2,1 mm X 100
Delay column Isolator column, 2.1 mm X 100 mm (Waters)
Gradient 0.2 mM NH4F 0.2 mM NH4F in
194limit of detection (LOD). The LOD is defined as three times the standard deviation of the blank
195plus the average blank value. The limit of quantification (LOQ) is defined as 3.3 * LOD value
Blank pg/extract Recovery % Repeatability %
Detection and report limits (calculated on based of average sample intake)

zebrafish = test: PBTK parameter fitting (Nelder–Mead algorithm) to in vivo zebrafish data; parameters: species or system zebrafish (Danio rerio); settings: fitted on brain BPZ concentrations of current study; used for all bisphenols
Text: Ovaries and eggs were assumed to receive the same blood flow. The equation for the egg compartment was described as follows using the diffusion-limited equation previously described by Thompson and Beard[51] [drawing 4] 4 where dAegg/dt represents the rate of change of bisphenol over time in the egg compartment, Agon and Aegg represent the amount of compound in the gonads and egg, respectively, Vgon and Vegg are the volumes of the gonads and eggs, respectively, and Pgon and Pegg are the partition coefficients of the gonads to blood and egg to gonads.
Parameter fitting was done in R using the modFit function in the FME package with the Nelder–Mead algorithm.[53]
279For fitting, the model was run using the exposure scenarios of each fitting data set.
280parameters were fixed as presented in Tables S10-S14 with exception of the parameter for
281which fitting was performed. The outcome evaluated by fitting algorithm was the concentration
282over time in the same tissue as the experimental data. Outcomes used for fitting to measured
283experimental data were: concentration in brain for brain-blood partition coefficient,
284concentration in liver for liver-blood partition coefficient, concentration in eggs for egg-gonad
285partition coefficient and whole-body metabolite concentration for Ke bile and KBG of metabolites.
286For the liver, brain and egg partitioning, the range was set between 0.01 and 500 and the Nelder-
287Mead algorithm was run with initial estimates at 1, 5, 10, 50 and 500 in order to assure a global
288minimum was found. The fitted values returning the lowest squared sum of residuals were used
The GI lumen to GI tract diffusion rate (K u)

Estrogen receptor (ER) = target: Estrogen receptor (ER); parameters: method as in Kitamura et al. 2005; settings: ERE-luciferase reporter assay, MCF-7 cells; ref Kitamura et al. 2005; cited from earlier work
[3] = brain, other: exposure via tank water, 10 μg/L (nominal water concentration), read-out: Mean concentration, brain
[4] = brain, other: water exposure, 10 µg/L, read-out: Mean concentration, brain
[5] = carcass, other: exposure via tank water, 10 μg/L (nominal water concentration), read-out: Mean concentration, carcass
[6] = carcass, other: water exposure, 10 µg/L, read-out: Mean concentration, carcass
[7] = liver, other: exposure via tank water, 10 μg/L (nominal water concentration), read-out: Mean concentration, liver
[8] = liver, other: water exposure, 10 µg/L, read-out: Mean concentration, liver
[9] = ovary, other: exposure via tank water, 10 μg/L (nominal water concentration), read-out: Mean concentration, ovary
[10] = ovary, other: water exposure, 10 µg/L, read-out: Mean concentration, ovary
[11] = whole body (calculated), other: water exposure, 10 µg/L, read-out: Mean concentration, whole body (calculated)
[12] = whole body, other: exposure via tank water, 10 μg/L (nominal water concentration), read-out: Mean concentration, whole body (calculated)
[13] = whole body, other: water exposure, 10 µg/L, read-out: Mean concentration, whole body (measured)
[14] = 17 μg/L (water concentration), brain
[15] = 17 μg/L (water concentration), carcass

## Oc1ccc(C2(c3ccc(O)cc3)CCCCC2)cc1 [BPZ, bisphenol Z]
[1]; both series combined
  CL: 0.30 mL/(h x mg)
[1]; from measured S9 clearance, transformed as suggested by Nichols et al.
  CLin vivo,int (in vivo intrinsic clearance): 17.4 L/d/Kg fish
[1]; in vitro incubation with rainbow trout liver S9, assuming 163 mg S9 protein/g liver
  CL (clearance rate): 1.16 × 10^3 mL/d/g liver
[1]; series 1 (s1)
  CL: 0.33 mL/(h x mg)
  k (first-order disappearance rate constant): 0.32 h⁻¹
[1]; series 2 (s2)
  CL: 0.26 mL/(h x mg)
  k (first-order disappearance rate constant): 0.26 h⁻¹
[2]; [3]
  concentration at 12 h: 82.1 ng/g
  concentration at 483 h: 14.4 ng/g
  concentration at 486 h: 7.9 ng/g
  concentration at 492 h: < 2.5 ng/g
  concentration at 504 h: < 3 ng/g
  concentration at 576 h: < 2.5 ng/g
[2]; [4]
  concentration at 6 h: 72 ng/g
  concentration at 24 h: 116 ng/g
  concentration at 48 h: 64.4 ng/g
  concentration at 72 h: 170 ng/g
  concentration at 336 h: 156 ng/g
  concentration at 411 h: 150 ng/g
  concentration at 480 h: 61.4 ng/g
[2]; [5]
  concentration at 480 h: 249 ng/g
  concentration at 483 h: 133 ng/g
  concentration at 486 h: 24.3 ng/g
  concentration at 492 h: 18.9 ng/g
  concentration at 504 h: 8.3 ng/g
  concentration at 576 h: 1.6 ng/g
[2]; [6]
  concentration at 6 h: 160 ng/g
  concentration at 12 h: 261 ng/g
  concentration at 24 h: 671 ng/g
  concentration at 48 h: 612 ng/g
  concentration at 72 h: 1120 ng/g
  concentration at 336 h: 348 ng/g
  concentration at 411 h: 557 ng/g
[2]; [7]
  concentration at 12 h: 57.5 ng/g
  concentration at 483 h: 252 ng/g
  concentration at 486 h: 71.3 ng/g
  concentration at 492 h: 11 ng/g
  concentration at 504 h: 12.4 ng/g
  concentration at 576 h: 4.4 ng/g
[2]; [8]
  concentration at 6 h: 182 ng/g
  concentration at 24 h: 364 ng/g
  concentration at 48 h: 225 ng/g
  concentration at 72 h: 536 ng/g
  concentration at 336 h: 146 ng/g
  concentration at 411 h: 232 ng/g
  concentration at 480 h: 1010 ng/g
[2]; [9]
  concentration at 12 h: 113 ng/g
  concentration at 480 h: 69.3 ng/g
  concentration at 483 h: 108 ng/g
  concentration at 486 h: 108 ng/g
  concentration at 492 h: 84.5 ng/g
  concentration at 504 h: 48.3 ng/g
  concentration at 576 h: 1 ng/g
[2]; [10]
  concentration at 6 h: 85.3 ng/g
  concentration at 24 h: 146 ng/g
  concentration at 48 h: 146 ng/g
  concentration at 72 h: 259 ng/g
  concentration at 336 h: 269 ng/g
  concentration at 411 h: 214 ng/g
[2]; [11]
  concentration at 12 h: 203 ng/g
  concentration at 24 h: 530 ng/g
  concentration at 48 h: 500 ng/g
  concentration at 72 h: 900 ng/g
  concentration at 336 h: 296 ng/g
  concentration at 411 h: 472 ng/g
[2]; [12]
  concentration at 6 h: 130 ng/g
  concentration at 480 h: 449 ng/g
  concentration at 483 h: 128 ng/g
  concentration at 486 h: 35.1 ng/g
  concentration at 492 h: 28.2 ng/g
  concentration at 504 h: 14.5 ng/g
  concentration at 576 h: 1.5 ng/g
[2]; whole body, other: exposure via tank water, 10 μg/L (nominal water concentration), read-out: Mean concentration, whole body (measured)
  concentration at 6 h: 215 ng/g
[2]; [13]
  concentration at 12 h: 336 ng/g
  concentration at 24 h: 435 ng/g
[2]; [14]
  Cmax: 170 ng/g
  half-life: 135 h
[2]; [15]
  Cmax: 1120 ng/g
  half-life: 119 h
[2]; liver
  Cmax: 1010 ng/g
  half-life: 210 h
[2]; ovaries
  Cmax: 270 ng/g
  half-life: 247 h
[2]; whole body
  Cmax: 900 ng/g
  half-life: 134 h
zebrafish
  Pbb (brain to blood partition coefficient): 0.42
Estrogen receptor (ER)
  EC50: 210 nM
